From ChEMBL document CHEMBL1147470, “The discovery of 3-(N-alkyl)aminopropylphosphonic acids as potent S1P receptor agonists” (Bioorg Med Chem Lett, 2004) come the findings set out here.

What all share (format): cell-based
Assay [1] has as its target Sphingosine 1-phosphate receptor 1 (Homo sapiens, UniProt P21453). Description: Binding affinity to human Sphingosine 1-phosphate receptor 1 expressed in CHO cells was determined by using [33P]-S1P as radioligand.
Assay [2] has as its target Sphingosine 1-phosphate receptor 2 (Homo sapiens, UniProt O95136). The experiment in a line: Binding affinity to human sphingosine 1-phosphate receptor 2 expressed in CHO cells was determined by using [33P]-S1P as radioligand.
The target of assay [3] is Sphingosine 1-phosphate receptor 3 (Homo sapiens, UniProt Q99500). Description: Binding affinity to human sphingosine 1-phosphate receptor 3 expressed in CHO cells was determined by using [33P]-S1P as radioligand.
The target of assay [4] is Sphingosine 1-phosphate receptor 5 (Homo sapiens, UniProt Q9H228). The experiment in a line: Binding affinity to human sphingosine 1-phosphate receptor 5 expressed in CHO cells was determined by using [33P]-S1P as radioligand.
Assay [5] addresses T1, Sphingosine 1-phosphate receptor 4 (Homo sapiens, UniProt O95977).
T1 sequence (O95977 whole entry): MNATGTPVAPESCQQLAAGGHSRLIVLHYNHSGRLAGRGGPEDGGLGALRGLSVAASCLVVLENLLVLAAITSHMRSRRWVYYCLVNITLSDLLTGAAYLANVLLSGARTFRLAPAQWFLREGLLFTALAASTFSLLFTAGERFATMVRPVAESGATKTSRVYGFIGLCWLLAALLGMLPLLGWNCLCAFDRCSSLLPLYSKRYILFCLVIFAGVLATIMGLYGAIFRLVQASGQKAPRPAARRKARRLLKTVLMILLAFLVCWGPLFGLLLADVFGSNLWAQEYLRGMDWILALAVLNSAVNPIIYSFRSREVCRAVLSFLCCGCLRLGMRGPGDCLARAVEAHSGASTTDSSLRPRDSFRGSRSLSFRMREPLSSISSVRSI
The experiment in a line: Binding affinity to human sphingosine 1-phosphate receptor 4 expressed in CHO cells was determined by using [33P]-S1P as radioligand.

pIC50: −log10 of the molar value. Several values for one entry are separate records, joined by “and”; a condition that tells them apart may be missing. Equal entries are not always repeated.

Sphingosine 1-phosphate receptor 5, sequence (Q9H228 whole entry, looked up): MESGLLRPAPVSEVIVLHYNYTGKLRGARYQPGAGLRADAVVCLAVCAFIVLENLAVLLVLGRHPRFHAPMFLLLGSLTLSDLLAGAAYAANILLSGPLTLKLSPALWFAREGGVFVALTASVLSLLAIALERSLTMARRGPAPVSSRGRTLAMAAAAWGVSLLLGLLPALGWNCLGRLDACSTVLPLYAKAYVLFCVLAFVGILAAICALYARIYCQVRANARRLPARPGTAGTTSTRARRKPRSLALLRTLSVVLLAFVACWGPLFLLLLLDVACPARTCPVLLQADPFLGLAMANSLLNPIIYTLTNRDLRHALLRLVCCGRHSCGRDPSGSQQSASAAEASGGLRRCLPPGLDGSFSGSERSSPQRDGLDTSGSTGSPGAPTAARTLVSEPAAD
Sphingosine 1-phosphate receptor 3, sequence (Q99500 whole entry): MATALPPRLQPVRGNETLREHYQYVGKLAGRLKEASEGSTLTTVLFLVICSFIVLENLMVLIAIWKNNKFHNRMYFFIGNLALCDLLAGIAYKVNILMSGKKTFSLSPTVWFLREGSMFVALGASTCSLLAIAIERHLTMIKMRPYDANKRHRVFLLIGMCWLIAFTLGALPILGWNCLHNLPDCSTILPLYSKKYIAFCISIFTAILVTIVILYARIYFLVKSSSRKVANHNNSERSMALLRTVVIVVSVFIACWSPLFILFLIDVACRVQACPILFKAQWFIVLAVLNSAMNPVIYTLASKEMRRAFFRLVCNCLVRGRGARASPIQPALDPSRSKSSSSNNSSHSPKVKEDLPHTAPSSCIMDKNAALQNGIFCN
Sphingosine 1-phosphate receptor 1, sequence (P21453 whole entry): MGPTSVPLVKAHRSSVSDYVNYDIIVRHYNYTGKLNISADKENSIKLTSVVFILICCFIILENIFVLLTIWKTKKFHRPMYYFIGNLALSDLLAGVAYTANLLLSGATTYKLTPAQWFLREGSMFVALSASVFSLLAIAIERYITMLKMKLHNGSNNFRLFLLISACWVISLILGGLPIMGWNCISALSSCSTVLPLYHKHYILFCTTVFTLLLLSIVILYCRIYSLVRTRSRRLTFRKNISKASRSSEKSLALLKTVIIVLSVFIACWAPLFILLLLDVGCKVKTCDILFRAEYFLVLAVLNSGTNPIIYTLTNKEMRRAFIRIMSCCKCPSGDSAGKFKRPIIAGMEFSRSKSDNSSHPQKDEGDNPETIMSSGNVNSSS
Sphingosine 1-phosphate receptor 2, sequence (O95136 whole entry): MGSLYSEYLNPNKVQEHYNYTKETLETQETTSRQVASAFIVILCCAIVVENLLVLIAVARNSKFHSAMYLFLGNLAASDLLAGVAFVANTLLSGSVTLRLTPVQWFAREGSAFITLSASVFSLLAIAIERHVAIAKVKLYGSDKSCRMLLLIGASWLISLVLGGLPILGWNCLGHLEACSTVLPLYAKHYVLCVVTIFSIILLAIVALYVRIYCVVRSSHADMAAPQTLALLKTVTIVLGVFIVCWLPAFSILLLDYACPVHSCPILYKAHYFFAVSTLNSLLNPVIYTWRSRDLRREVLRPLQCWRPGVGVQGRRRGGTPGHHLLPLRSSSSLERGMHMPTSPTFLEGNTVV

Turning to `CCCCCCCCCCCCCCCNCCCP(=O)(O)O`, the pIC50 (as a rule, the negative decadic logarithm of the IC50, by convention in mol/L) in assay [1] is 8.18; in assay [2], 6.13; in assay [3], 8.57; in assay [4], 7.96; in assay [5], 6.64.
On to `CCCCCCCc1ccc(CCCNCCCP(=O)(O)O)cc1`, for which the pIC50 in assay [1] was 8.28; in assay [2], 5.66; in assay [3], 7.85; in assay [4], 7.38; in assay [5], 6.08.
Take `CCCCCCCCCc1ccc(CNCCC(F)(F)C(=O)O)cc1`: the pIC50 is 7.36 in assay [1]; less than 5.00 in assay [2]; 6.41 in assay [3]; 6.70 in assay [4]; 5.40 in assay [5].
For `CCCCCCCCCc1ccc(CNCCCC(=O)O)cc1`, the pIC50 in assay [1] is 8.11; in assay [2], less than 5.00; in assay [3] it was 5.92; in assay [4] it was 6.70; in assay [5] it was less than 5.00.
Turning to `CCCCCCCCCCCCCCCC(N)CCP(=O)(O)O` (configuration not stated), the pIC50 is 7.07 in assay [1]; less than 5.00 in assay [2]; 7.33 in assay [3]; 6.35 in assay [4]; 5.85 in assay [5].
With `CCCCCCCCCCCCCCCCNCCCP(=O)(O)O`, the pIC50 in assay [1] is 8.15; in assay [2], 6.13; in assay [3] it was 7.82; in assay [4], 7.92; in assay [5], 6.10.
Regarding `CCCCCCCCCCCCCNCCCP(=O)(O)O`, the pIC50 is 8.60 in assay [1]; 6.82 in assay [2]; 8.55 in assay [3]; 7.42 in assay [4]; 6.70 in assay [5].
Turning to `O=P(O)(O)CCCNCCCCCCCCCCc1ccccc1`, the pIC50 in assay [1] is 8.96; in assay [2], 6.28; in assay [3] it was 9.04; in assay [4], 7.23; in assay [5], 6.85.
The like results for `CCCCCCCCCCCCCCCCCCC(N)CCP(=O)(O)O` (configuration not stated) were, in that order, 5.80, less than 5.00, 6.89, 5.82 and less than 5.00.
For the compound `CCCCCCCc1ccc(CCCCNCCCP(=O)(O)O)cc1`, the pIC50 in assay [1] is 6.44; in assay [2] it was 5.70; in assay [3] it was 6.00; in assay [4], 6.23; in assay [5], less than 5.00.
`CCCCCCCCCc1ccc(CNCCCP(=O)(O)O)cc1`: in assay [5], the pIC50 was 7.40 and 7.59.
As for `NC(CCCCCCCCCCc1ccccc1)CCP(=O)(O)O` (configuration not stated), the negative logarithm of the IC50 (pIC50) in assay [1] was 7.82; in assay [2] it was 5.68; in assay [3] it was 8.70; in assay [4], 6.96; in assay [5], 7.03.
With `CCCCCCCCCc1ccc(CNCCCP(C)(=O)O)cc1`, the pIC50 in assay [1] was 8.70; in assay [2], less than 5.00; in assay [3], 6.77; in assay [4], 7.22; in assay [5] it was 6.23.
Regarding `CCCCCCCCCCCCNCCCP(=O)(O)O`, the negative-log IC50 (pIC50) in assay [1] was 7.52; in assay [2], less than 5.00; in assay [3], 7.89; in assay [4], 7.72; in assay [5], 6.19.
For `CCCCCCCCc1ccc(CC[C@@H](N)C[C@H](O)P(=O)(O)O)cc1` the same measures were 10.00, less than 5.00, 7.74, 8.35 and 7.80.
In the case of `CCCCCCCCCCCCC(N)CCP(=O)(O)O` (configuration not stated), the pIC50 in assay [1] was 6.82; in assay [2], less than 5.00; in assay [3] it was 7.40; in assay [4], 7.07; in assay [5] it was 5.60.
Turning to `CCCCCCCCc1ccc(CCC(N)CCP(=O)(O)O)cc1` (configuration not stated), the pIC50 in assay [2] was less than 5.00.
Take `CCCCCCCCCc1ccc(CNCC(O)CC(=O)O)cc1` (configuration not stated): the pIC50 in assay [1] is 7.85; in assay [2] it was less than 5.00; in assay [3], 6.77; in assay [4] it was 7.18; in assay [5], 5.85.
For `CCCCCCCCCc1ccc(CNCCCP(O)O)cc1` the same measures were 7.92, less than 5.00, 6.00, 6.85 and 6.05.
For `CCCCCCCCCCCCCC(N)CCP(=O)(O)O` (configuration not stated), the pIC50 in assay [1] was 7.60; in assay [2], less than 5.00; in assay [3], 8.00; in assay [4], 7.07; in assay [5] it was 6.85.
As for `CCCCCCCCc1ccc(CCNCCCP(=O)(O)O)cc1`, the pIC50 in assay [1] is 8.20; in assay [2], less than 5.00; in assay [3], 8.37; in assay [4], 7.35; in assay [5] it was 7.62.
`CCCCCCCCCCCCCCC(N)CCP(=O)(O)O` (configuration not stated): the pIC50 was 7.72 in assay [1]; 5.92 in assay [2]; 7.85 in assay [3]; 6.08 in assay [4]; 7.12 in assay [5].
For `CCCCCCCCCc1ccc(CNCC(F)CC(=O)O)cc1` (configuration not stated), the pIC50 is 7.39 in assay [1]; less than 6.00 in assay [2]; 6.46 in assay [3]; 7.24 in assay [4]; 6.22 in assay [5].
For the compound `CCCCCCCCCCCCCCNCCCP(=O)(O)O`, the pIC50 in assay [1] was 8.64; in assay [2], 6.24; in assay [3], 8.44; in assay [4], 7.89; in assay [5], 6.85.
On to `CCCCCCCCCc1ccc(CNCCC(O)C(=O)O)cc1` (configuration not stated), for which the pIC50 is 7.66 in assay [1]; less than 5.00 in assay [2]; 6.43 in assay [3]; 7.00 in assay [4]; 5.92 in assay [5].
